Results reported in the kinase profiling compilation of Christmann-Franck et al. (2016).

How the values were obtained:
Assay in all cases: KINOMEscan competition binding
Details in all cases: compound 2.0 µM
[1] = system: ABL1 (human), P00519 [M351T]
ACVRL1 (human) = ACVRL1 (human) (UniProt P37023)
BRSK2 (human) = BRSK2 (human) (UniProt Q8IWQ3)
CAMK1G (human) = CAMK1G (human) (UniProt Q96NX5)
CAMK2A (human) = CAMK2A (human) (UniProt Q9UQM7)
CDK14 (human) = CDK14 (human) (UniProt O94921)
CDK18 (human) = CDK18 (human) (UniProt Q07002)
CDK2 (human) = CDK2 (human) (UniProt P24941)
CDK7 (human) = CDK7 (human) (UniProt P50613)
CDKL1 (human) = CDKL1 (human) (UniProt Q00532)
CDKL3 (human) = CDKL3 (human) (UniProt Q8IVW4)
CDKL5 (human) = CDKL5 (human) (UniProt O76039)
CHEK1 (human) = CHEK1 (human) (UniProt O14757)
CSNK1A1 (human) = CSNK1A1 (human) (UniProt P48729)
CSNK1A1 (human), sequence (P48729 whole entry, looked up): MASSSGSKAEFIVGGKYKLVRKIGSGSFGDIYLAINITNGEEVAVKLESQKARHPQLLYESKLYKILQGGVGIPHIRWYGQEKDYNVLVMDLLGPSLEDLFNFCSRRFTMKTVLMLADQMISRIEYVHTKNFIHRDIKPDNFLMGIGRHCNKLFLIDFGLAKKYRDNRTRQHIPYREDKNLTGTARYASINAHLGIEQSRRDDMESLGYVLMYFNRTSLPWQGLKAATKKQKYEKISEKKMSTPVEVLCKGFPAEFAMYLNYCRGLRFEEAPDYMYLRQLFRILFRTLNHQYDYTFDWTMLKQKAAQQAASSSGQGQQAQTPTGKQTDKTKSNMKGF

CSNK1G3 (human) = CSNK1G3 (human) (UniProt Q9Y6M4)
DCLK2 (human) = DCLK2 (human) (UniProt Q8N568)
DCLK2 (human), sequence (Q8N568 whole entry, looked up): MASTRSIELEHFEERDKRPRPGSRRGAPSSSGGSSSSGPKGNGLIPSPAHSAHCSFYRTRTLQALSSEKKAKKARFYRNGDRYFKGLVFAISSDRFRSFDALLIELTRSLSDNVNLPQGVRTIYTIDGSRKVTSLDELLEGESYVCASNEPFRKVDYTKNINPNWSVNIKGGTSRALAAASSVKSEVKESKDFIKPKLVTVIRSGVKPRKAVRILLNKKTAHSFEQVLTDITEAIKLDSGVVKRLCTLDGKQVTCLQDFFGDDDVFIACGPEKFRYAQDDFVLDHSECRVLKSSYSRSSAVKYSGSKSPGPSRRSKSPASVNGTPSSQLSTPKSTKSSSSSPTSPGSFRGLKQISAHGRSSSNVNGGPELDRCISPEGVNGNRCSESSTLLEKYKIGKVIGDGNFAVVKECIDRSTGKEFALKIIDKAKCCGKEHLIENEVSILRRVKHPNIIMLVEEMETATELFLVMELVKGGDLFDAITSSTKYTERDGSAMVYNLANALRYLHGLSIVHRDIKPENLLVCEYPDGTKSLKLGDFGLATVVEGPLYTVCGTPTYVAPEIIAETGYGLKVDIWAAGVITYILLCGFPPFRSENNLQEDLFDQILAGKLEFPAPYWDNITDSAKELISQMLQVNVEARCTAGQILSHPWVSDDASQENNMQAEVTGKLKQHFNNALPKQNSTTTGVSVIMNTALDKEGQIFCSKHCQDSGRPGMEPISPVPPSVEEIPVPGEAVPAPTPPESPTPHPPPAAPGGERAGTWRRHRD

[2] = system: EGFR (human), P00533 [746-750 del]
[3] = system: EGFR (human), P00533 [A750P; 747-749 del]
[4] = system: EGFR (human), P00533 [T790M]
EPHA2 (human) = EPHA2 (human) (UniProt P29317)
EPHB6 (human) = EPHB6 (human) (UniProt O15197)
EPHB6 (human), sequence (O15197 whole entry, looked up): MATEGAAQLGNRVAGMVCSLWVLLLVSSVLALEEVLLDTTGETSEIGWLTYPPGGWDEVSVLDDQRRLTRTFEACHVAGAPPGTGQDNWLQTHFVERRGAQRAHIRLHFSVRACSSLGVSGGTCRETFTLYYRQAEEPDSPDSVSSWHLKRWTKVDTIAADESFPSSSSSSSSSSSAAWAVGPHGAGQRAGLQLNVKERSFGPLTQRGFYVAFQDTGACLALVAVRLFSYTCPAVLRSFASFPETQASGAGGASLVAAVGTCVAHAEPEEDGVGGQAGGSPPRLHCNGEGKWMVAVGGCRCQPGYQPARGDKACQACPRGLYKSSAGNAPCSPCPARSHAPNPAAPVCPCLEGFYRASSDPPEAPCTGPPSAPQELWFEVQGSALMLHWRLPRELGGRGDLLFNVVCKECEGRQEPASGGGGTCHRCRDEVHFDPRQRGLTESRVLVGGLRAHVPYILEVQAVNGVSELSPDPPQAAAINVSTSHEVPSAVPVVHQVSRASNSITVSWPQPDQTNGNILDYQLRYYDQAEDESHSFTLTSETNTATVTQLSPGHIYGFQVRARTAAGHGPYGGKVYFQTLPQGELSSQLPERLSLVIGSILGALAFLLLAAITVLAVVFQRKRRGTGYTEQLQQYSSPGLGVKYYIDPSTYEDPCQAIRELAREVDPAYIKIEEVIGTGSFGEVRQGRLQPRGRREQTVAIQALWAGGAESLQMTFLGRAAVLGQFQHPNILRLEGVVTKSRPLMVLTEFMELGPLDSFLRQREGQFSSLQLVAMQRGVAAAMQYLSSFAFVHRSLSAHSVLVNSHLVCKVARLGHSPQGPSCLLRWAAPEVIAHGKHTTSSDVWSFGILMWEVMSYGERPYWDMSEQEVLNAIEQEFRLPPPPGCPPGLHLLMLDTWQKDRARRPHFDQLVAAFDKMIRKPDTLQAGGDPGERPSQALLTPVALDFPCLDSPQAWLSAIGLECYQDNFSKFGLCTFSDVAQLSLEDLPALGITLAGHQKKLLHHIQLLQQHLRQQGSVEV

ERN1 (human) = ERN1 (human) (UniProt O75460)
ERN1 (human), sequence (O75460 whole entry, looked up): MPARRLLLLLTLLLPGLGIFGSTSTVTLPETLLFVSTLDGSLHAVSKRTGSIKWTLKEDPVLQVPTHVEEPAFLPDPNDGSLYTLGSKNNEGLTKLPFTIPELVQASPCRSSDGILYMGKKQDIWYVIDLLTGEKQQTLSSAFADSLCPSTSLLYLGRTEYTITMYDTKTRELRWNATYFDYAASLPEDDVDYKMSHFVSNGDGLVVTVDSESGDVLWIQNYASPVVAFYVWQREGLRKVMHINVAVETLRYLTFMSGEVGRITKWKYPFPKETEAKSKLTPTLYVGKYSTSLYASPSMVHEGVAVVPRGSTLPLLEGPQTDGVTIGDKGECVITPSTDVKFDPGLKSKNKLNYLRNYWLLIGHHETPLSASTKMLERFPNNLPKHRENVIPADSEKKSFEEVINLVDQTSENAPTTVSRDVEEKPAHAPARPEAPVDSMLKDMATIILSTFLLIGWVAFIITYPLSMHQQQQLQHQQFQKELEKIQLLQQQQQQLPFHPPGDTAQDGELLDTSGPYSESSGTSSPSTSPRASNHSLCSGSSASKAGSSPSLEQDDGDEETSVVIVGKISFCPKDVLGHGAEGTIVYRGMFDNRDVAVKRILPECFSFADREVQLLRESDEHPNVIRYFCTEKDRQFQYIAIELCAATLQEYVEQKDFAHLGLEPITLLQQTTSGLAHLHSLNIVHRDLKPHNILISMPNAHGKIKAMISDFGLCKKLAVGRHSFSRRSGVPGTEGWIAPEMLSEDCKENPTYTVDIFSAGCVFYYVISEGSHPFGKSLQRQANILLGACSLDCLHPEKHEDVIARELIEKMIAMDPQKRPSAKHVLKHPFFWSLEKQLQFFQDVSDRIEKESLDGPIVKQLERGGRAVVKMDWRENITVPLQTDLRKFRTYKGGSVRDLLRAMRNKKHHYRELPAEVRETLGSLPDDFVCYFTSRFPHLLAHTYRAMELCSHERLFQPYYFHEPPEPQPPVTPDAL

FES (human) = FES (human) (UniProt P07332)
FGFR4 (human) = FGFR4 (human) (UniProt P22455)
FGFR4 (human), sequence (P22455 whole entry, looked up): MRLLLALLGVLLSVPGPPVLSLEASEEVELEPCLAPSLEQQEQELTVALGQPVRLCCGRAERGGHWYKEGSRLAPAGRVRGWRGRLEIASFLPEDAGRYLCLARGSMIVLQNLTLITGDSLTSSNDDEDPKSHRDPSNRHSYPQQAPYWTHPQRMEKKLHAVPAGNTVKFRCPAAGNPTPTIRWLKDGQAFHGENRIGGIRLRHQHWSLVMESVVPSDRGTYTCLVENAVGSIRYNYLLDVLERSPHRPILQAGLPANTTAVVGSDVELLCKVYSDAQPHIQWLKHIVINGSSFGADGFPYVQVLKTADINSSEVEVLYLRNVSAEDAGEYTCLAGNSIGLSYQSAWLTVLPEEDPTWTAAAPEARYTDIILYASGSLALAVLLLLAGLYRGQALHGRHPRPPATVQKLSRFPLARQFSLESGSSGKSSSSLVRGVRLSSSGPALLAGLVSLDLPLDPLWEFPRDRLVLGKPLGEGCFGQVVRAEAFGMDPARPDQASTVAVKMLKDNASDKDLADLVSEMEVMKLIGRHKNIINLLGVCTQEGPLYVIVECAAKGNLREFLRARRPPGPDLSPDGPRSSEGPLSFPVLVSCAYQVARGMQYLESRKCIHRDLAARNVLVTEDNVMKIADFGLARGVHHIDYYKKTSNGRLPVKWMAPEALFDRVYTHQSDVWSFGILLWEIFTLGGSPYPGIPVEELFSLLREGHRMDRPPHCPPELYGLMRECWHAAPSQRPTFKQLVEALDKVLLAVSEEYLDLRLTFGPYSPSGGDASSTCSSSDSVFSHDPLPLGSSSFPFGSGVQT

[5] = system: FLT3 (human), P36888 [ITD]
[6] = system: KIT (human), P10721 [V559D/T670I]
LYN (human) = LYN (human) (UniProt P07948)
MAP3K15 (human) = MAP3K15 (human) (UniProt Q6ZN16)
MAPK1 (human) = MAPK1 (human) (UniProt P28482)
MAPK11 (human) = MAPK11 (human) (UniProt Q15759)
MAPKAPK5 (human) = MAPKAPK5 (human) (UniProt Q8IW41)
MET (human) = MET (human) (UniProt P08581)
NEK5 (human) = NEK5 (human) (UniProt Q6P3R8)
PHKG1 (human) = PHKG1 (human) (UniProt Q16816)
PI4KB (human) = PI4KB (human) (UniProt Q9UBF8)
PIK3C2G (human) = PIK3C2G (human) (UniProt O75747)
PLK2 (human) = PLK2 (human) (UniProt Q9NYY3)
PRPF4B (human) = PRPF4B (human) (UniProt Q13523)
RAF1 (human) = RAF1 (human) (UniProt P04049)
RIOK3 (human) = RIOK3 (human) (UniProt O14730)
RIOK3 (human), sequence (O14730 whole entry, looked up): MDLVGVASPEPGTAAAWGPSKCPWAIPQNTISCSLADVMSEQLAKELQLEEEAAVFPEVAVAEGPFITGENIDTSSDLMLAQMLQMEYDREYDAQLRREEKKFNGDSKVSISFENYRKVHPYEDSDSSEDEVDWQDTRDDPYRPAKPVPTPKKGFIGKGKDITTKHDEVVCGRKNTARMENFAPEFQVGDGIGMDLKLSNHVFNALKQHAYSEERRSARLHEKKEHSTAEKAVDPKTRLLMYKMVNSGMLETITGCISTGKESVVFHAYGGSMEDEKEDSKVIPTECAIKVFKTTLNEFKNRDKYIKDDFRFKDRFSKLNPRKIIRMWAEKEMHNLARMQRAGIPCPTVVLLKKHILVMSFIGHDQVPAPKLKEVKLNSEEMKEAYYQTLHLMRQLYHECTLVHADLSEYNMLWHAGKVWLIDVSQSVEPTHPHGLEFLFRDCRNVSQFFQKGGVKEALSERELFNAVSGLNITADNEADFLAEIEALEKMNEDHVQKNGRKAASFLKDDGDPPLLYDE

TLK2 (human) = TLK2 (human) (UniProt Q86UE8)
TXK (human) = TXK (human) (UniProt P42681)
WEE2 (human) = WEE2 (human) (UniProt P0C1S8)

CAMK1G (human), sequence (Q96NX5 whole entry, looked up): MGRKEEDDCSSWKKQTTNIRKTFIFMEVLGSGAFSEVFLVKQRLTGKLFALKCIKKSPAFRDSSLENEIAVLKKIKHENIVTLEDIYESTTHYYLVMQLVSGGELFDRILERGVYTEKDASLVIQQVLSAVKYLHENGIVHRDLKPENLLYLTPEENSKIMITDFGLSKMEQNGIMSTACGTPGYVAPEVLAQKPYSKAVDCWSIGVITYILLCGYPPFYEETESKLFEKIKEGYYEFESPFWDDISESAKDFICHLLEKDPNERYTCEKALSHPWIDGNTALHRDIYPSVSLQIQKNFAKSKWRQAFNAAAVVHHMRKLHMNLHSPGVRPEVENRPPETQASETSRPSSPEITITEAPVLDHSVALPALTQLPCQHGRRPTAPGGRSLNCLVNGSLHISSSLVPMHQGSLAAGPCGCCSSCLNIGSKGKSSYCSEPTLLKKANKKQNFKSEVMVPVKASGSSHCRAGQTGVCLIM

Compound: N#Cc1ccc2ncnc(NCCc3ccc4ccccc4c3)c2c1
- kinase still bound, per cent of control [1]: 100%
- kinase still bound, per cent of control (ACVRL1 (human)): 100%
- kinase still bound, per cent of control (BRSK2 (human)): 100%
- kinase still bound, per cent of control (CAMK1G (human)): 86%
- kinase still bound, per cent of control (CAMK2A (human)): 99%
- kinase still bound, per cent of control (CDK14 (human)): 100%
- kinase still bound, per cent of control (CDK18 (human)): 97%
- kinase still bound, per cent of control (CDK2 (human)): 93%
- kinase still bound, per cent of control (CDK7 (human)): 80%
- kinase still bound, per cent of control (CDKL1 (human)): 100%
- kinase still bound, per cent of control (CDKL3 (human)): 100%
- kinase still bound, per cent of control (CDKL5 (human)): 100%
- kinase still bound, per cent of control (CHEK1 (human)): 97%
- kinase still bound, per cent of control (CSNK1A1 (human)): 87%
- kinase still bound, per cent of control (CSNK1G3 (human)): 81%
- kinase still bound, per cent of control (DCLK2 (human)): 100%
- kinase still bound, per cent of control [2]: 100%
- kinase still bound, per cent of control [3]: 83%
- kinase still bound, per cent of control [4]: 100%
- kinase still bound, per cent of control (EPHA2 (human)): 100%
- kinase still bound, per cent of control (EPHB6 (human)): 100%
- kinase still bound, per cent of control (ERN1 (human)): 100%
- kinase still bound, per cent of control (FES (human)): 100%
- kinase still bound, per cent of control (FGFR4 (human)): 100%
- kinase still bound, per cent of control [5]: 87%
- kinase still bound, per cent of control [6]: 86%
- kinase still bound, per cent of control (LYN (human)): 99%
- kinase still bound, per cent of control (MAP3K15 (human)): 91%
- kinase still bound, per cent of control (MAPK1 (human)): 100%
- kinase still bound, per cent of control (MAPK11 (human)): 100%
- kinase still bound, per cent of control (MAPKAPK5 (human)): 79%
- kinase still bound, per cent of control (MET (human)): 100%
- kinase still bound, per cent of control (NEK5 (human)): 70%
- kinase still bound, per cent of control (PHKG1 (human)): 100%
- kinase still bound, per cent of control (PI4KB (human)): 95%
- kinase still bound, per cent of control (PIK3C2G (human)): 100%
- kinase still bound, per cent of control (PLK2 (human)): 98%
- kinase still bound, per cent of control (PRPF4B (human)): 100%
- kinase still bound, per cent of control (RAF1 (human)): 100%
- kinase still bound, per cent of control (RIOK3 (human)): 100%
- kinase still bound, per cent of control (TLK2 (human)): 94%
- kinase still bound, per cent of control (TXK (human)): 94%
- kinase still bound, per cent of control (WEE2 (human)): 65%
